The subject of this test is Listeria monocytogenes. Nature of the test: Bacterial titer / log attenuation of Listeria after compound 1 treatment. The class given is cell-based. The following applies: e.g. at 1 μM. The method, then:
A procedure was done similarly to Example 1 only using the compound β-alanine, N-(acridin-9-yl), 2-[bis(2-chloroethyl)amino]ethyl ester (Compound 1, ChemSyn, Harrisonville, Mo., see U.S. Pat. No. 6,093,725). The Listeria strains used were DP-L4056 and DP-L4017. Compound 1 (1 mM in acidic BBS (blood bank saline), 135 μl of 1.48 M H3PO4 per 100 mL BBS) was added to 5 mL of bacteria at 1×10^8 CFU/mL to concentrations of 0, 0.5, 1, 2, 5, and 10 μM and the samples incubated for 2 hours at room temperature. After the incubation, the bacterial titer and antigen presentation was assessed as per Example 1.

Molecules are shown by their SMILES.

Take `O=C(CCNc1c2ccccc2nc2ccccc12)OCCN(CCCl)CCCl` [compound 1, β-alanine, N-(acridin-9-yl), 2-[bis(2-chloroethyl)amino]ethyl ester]: the “attenuation of proliferation with sufficient antigen presentation” value is “effective”.

The values above are taken from US7695725B2, “Modified free-living microbes, vaccine compositions and methods of use thereof” (Aduro Biotech, priority 2003, dated 2010).
